Reference: patent US9079913B2, “Spiro-oxindole MDM2 antagonists” (The Regents of the University of Michigan, priority 2009, dated 2015)
“And” between values parts separate entries of the source, which are not always exact repeats. Equal entries are not always repeated.

How the values were obtained:
[1] = Pharmacokinetic studies in ICR mice; type: in vivo; design: Measured concentrations in the plasma samples: unit not given here; conditions: for Measured concentrations in the plasma samples: single i.v. dose 10 mg/kg; for Plasma Concentrations: single p.o dose 50 mg/kg
[2] = Pharmacokinetic studies in rats; type: in vivo, rat; conditions: for Plasma Concentration: male rat
Experimental: Pharmacokinetic studies on MDM2 inhibitors were carried out in rat. For comparison, the MDM2 inhibitor, AT-219, was also studied.

[3] = In vitro microsomal stability, human; type: in vitro ADME; conditions: for Microsomal stability, % remaining: Human microsomes
SJSA-1 xenograft tumors = conditions: mice bearing SJSA-1 xenograft, oral 200-300 mg/kg daily or twice a day, 2 weeks; cited from earlier work
[4] = In vitro microsomal stability, rat; type: in vitro ADME; conditions: for Microsomal stability, % remaining: Rat microsomes
[5] = In vitro microsomal stability, dog; type: in vitro ADME; conditions: for Microsomal stability, % remaining: Dog microsomes
[6] = rats, IV 5 mg/kg, animals and MEAN
[7] = rats, IV 5 mg/kg, animals and MEAN, mean
[8] = rats, PO 25 mg/kg, animals and MEAN

## MI-219
[1]; 50 mg/kg oral dosing
  AUC: 8469 ± 2381 ng·h/mL
[1]; p.o. 50 mg/kg
  AUC 0→9 h: 26839 ng·h/mL and 16158 ng·h/mL and 14622 ng·h/mL
  F: 76.7% and 46.2% and 41.8% and 54.9 ± 19.0%
  Kel: 0.37 and 0.69
  MRT: 2.5813 h and 2.043 h and 2.2585 h
  Tmax: 2 h
[1]; p.o. 50 mg/kg, groups and Mean ± SD
  Cmax: 10399 ng/mL and 9201 ng/mL and 9082 ng/mL and 9561 ± 728 ng/mL
[1]; p.o. 50 mg/kg, mean
  AUC 0→9 h: 19206 ± 6655 ng·h/mL
  Kel: 0.47 ± 0.19
  MRT: 2.29 ± 0.27 h
[1]; 5 min, groups and Mean ± SD, mean
  Measured concentrations in the plasma samples: 18041 ± 3799
[1]; 15 min, mean
  Measured concentrations in the plasma samples: 5823 ± 701
  Plasma Concentrations: 2043 ± 772 ng/mL
[1]; 30 min, mean
  Measured concentrations in the plasma samples: 3570 ± 871
[1]; 45 min, mean
  Measured concentrations in the plasma samples: 1731 ± 429
[1]; 1 h, mean
  Measured concentrations in the plasma samples: 1223 ± 141
[1]; 24 h
  Measured concentrations in the plasma samples: BLQ
  Plasma Concentrations: Beyond
[1]; 15 min
  Plasma Concentrations: 2927 ng/mL and 1700 ng/mL and 1503 ng/mL
[1]; 2 h
  Plasma Concentrations: 10399 ng/mL and 9201 ng/mL and 5808 ng/mL
[1]; 2 h, mean
  Plasma Concentrations: 8469 ± 2381 ng/mL
[1]; 5 h
  Plasma Concentrations: 522 ng/mL and 277 ng/mL and 334 ng/mL
[1]; 5 h, mean
  Plasma Concentrations: 378 ± 128 ng/mL
[2]; IV 5 mg/kg, 0.083 hr, animals M1, M2 and Mean
  Plasma Concentration: 5873.30 ng/mL and 5229.30 ng/mL
[2]; IV 5 mg/kg, 0.083 hr, animals M1, M2 and Mean, mean
  Plasma Concentration: 5551.30 ng/mL
[2]; IV 5 mg/kg, 0.5 hr, animals and Mean
  Plasma Concentration: 693.45 ng/mL and 548.39 ng/mL
[2]; IV 5 mg/kg, 0.5 hr, animals and Mean, mean
  Plasma Concentration: 620.92 ng/mL
[2]; IV 5 mg/kg, 1 hr, animals and Mean
  Plasma Concentration: 330.71 ng/mL and 344.66 ng/mL
[2]; IV 5 mg/kg, 1 hr, animals and Mean, mean
  Plasma Concentration: 337.68 ng/mL
[2]; IV 5 mg/kg, 2 hr, animals and Mean
  Plasma Concentration: 164.88 ng/mL and 134.91 ng/mL
[2]; IV 5 mg/kg, 2 hr, animals and Mean, mean
  Plasma Concentration: 149.90 ng/mL
[2]; IV 5 mg/kg, 4 hr, animals and Mean
  Plasma Concentration: 49.27 ng/mL and 56.50 ng/mL
[2]; IV 5 mg/kg, 4 hr, animals and Mean, mean
  Plasma Concentration: 52.88 ng/mL
[2]; IV 5 mg/kg, 6 hr, animals and Mean
  Plasma Concentration: 24.18 ng/mL and 32.66 ng/mL
[2]; IV 5 mg/kg, 6 hr, animals and Mean, mean
  Plasma Concentration: 28.42 ng/mL
[2]; IV 5 mg/kg, 8 hr, animals and Mean
  Plasma Concentration: 11.05 ng/mL and 18.98 ng/mL
[2]; IV 5 mg/kg, 8 hr, animals and Mean, mean
  Plasma Concentration: 15.02 ng/mL
[2]; IV 5 mg/kg, 24 hr, animals and Mean
  Plasma Concentration: 1.86 ng/mL and 1.28 ng/mL
[2]; IV 5 mg/kg, 24 hr, animals and Mean, mean
  Plasma Concentration: 1.57 ng/mL
[2]; PO 25 mg/kg, 0.083 hr, animals M6-M8 and Mean
  Plasma Concentration: 1526.57 ng/mL and 1380.03 ng/mL and 1642.42 ng/mL
[2]; PO 25 mg/kg, 0.083 hr, animals M6-M8 and Mean, mean
  Plasma Concentration: 1516.34 ng/mL
[2]; PO 25 mg/kg, 0.5 hr, animals and Mean
  Plasma Concentration: 3332.19 ng/mL and 2500.25 ng/mL and 4278.56 ng/mL
[2]; PO 25 mg/kg, 0.5 hr, animals and Mean, mean
  Plasma Concentration: 3370.33 ng/mL
[2]; PO 25 mg/kg, 1 hr, animals and Mean
  Plasma Concentration: 3101.06 ng/mL and 2957.44 ng/mL and 1779.31 ng/mL
[2]; PO 25 mg/kg, 1 hr, animals and Mean, mean
  Plasma Concentration: 2612.60 ng/mL
[2]; PO 25 mg/kg, 2 hr, animals and Mean
  Plasma Concentration: 1064.21 ng/mL and 1534.41 ng/mL and 1342.18 ng/mL
[2]; PO 25 mg/kg, 2 hr, animals and Mean, mean
  Plasma Concentration: 1313.60 ng/mL
[2]; PO 25 mg/kg, 4 hr, animals and Mean
  Plasma Concentration: 296.644 ng/mL and 223.937 ng/mL and 407.415 ng/mL
[2]; PO 25 mg/kg, 4 hr, animals and Mean, mean
  Plasma Concentration: 309.33 ng/mL
[2]; PO 25 mg/kg, 6 hr, animals and Mean
  Plasma Concentration: 103.285 ng/mL and 90.8093 ng/mL and 131.398 ng/mL
[2]; PO 25 mg/kg, 6 hr, animals and Mean, mean
  Plasma Concentration: 108.50 ng/mL
[2]; PO 25 mg/kg, 8 hr, animals and Mean
  Plasma Concentration: 80.4445 ng/mL and 66.2777 ng/mL
[2]; PO 25 mg/kg, 8 hr, animals and Mean, mean
  Plasma Concentration: 64.76 ng/mL
[2]; PO 25 mg/kg, 24 hr, animals and Mean
  Plasma Concentration: 25.1348 ng/mL and 17.5136 ng/mL and 20.2154 ng/mL
[2]; PO 25 mg/kg, 24 hr, animals and Mean, mean
  Plasma Concentration: 20.95 ng/mL
[2]; male rats, oral dose 25 mg/kg
  % F: 65%
  AUC(0-t): 7677 ± 328
  Cmax: 3751 ± 1068 ng/mL
  T1/2: 1.4 ± 0.1 h
[2]; oral dosing, rats
  oral bioavailability / oral pharmacokinetics in rats (in words): orally bioavailable
[2]; [6]
  AUC(0-t): 2318.88 µg·h/L and 2379.54 µg·h/L
  AUC(0-∞): 2319.77 ng·h/mL and 2379.62 ng·h/mL
  CLz: 36 mL/min/kg and 35 mL/min/kg
  Cmax: 5229.30 ng/mL and 5873.30 ng/mL
  MRT(0-∞): 1.51 h and 1.26 h
  T1/2: 2.54 h and 1.86 h
  Vz: 7.90 L/kg and 5.62 L/kg
[2]; [7]
  AUC(0-t): 2349.21 µg·h/L
  AUC(0-∞): 2349.69 ng·h/mL
  CLz: 35.5 mL/min/kg
  Cmax: 5551.30 ng/mL
  MRT(0-∞): 1.38 h
  T1/2: 2.20 h
  Vz: 6.76 L/kg
[2]; rats, PO 25 mg/kg vs IV 5 mg/kg, animals and MEAN
  F: 65.45±2.77% and 62.81% and 65.22% and 68.34% and 65.45%
[2]; [8]
  AUC(0-t): 7378.78 µg·h/L and 7623.45 µg·h/L and 8028.71 µg·h/L
  AUC(0-∞): 7689.94 ± 325.86 ng·h/mL and 7378.81 ng·h/mL and 7662.25 ng·h/mL and 8028.76 ng·h/mL and 7689.94 ng·h/mL
  Cmax: 3332.19 ng/mL and 2957.44 ng/mL and 4965.7 ng/mL and 3751.78 ng/mL
  MRT(0-∞): 2.64 h and 2.67 h and 2.62 h
  T1/2: 1.36 h and 1.54 h and 1.40 h and 1.43 h
[2]; rats, PO 25 mg/kg, animals and MEAN, mean
  AUC(0-t): 7676.98 µg·h/L
[3]; 0 min
  Microsomal stability, % remaining: 100.00%
[3]; 5 min
  Microsomal stability, % remaining: 78.76%
[3]; 10 min
  Microsomal stability, % remaining: 58.19%
[3]; 15 min
  Microsomal stability, % remaining: 46.46%
[3]; 30 min
  Microsomal stability, % remaining: 26.46%
[3]; 45 min
  Microsomal stability, % remaining: 20.88%
[3]; 60 min
  Microsomal stability, % remaining: 11.86%
[3]; human liver microsomes
  microsomal stability (in words): metabolized fairly rapidly
SJSA-1 xenograft tumors
  tumor growth inhibition (in words): effective tumor growth inhibition
[4]; 0 min
  Microsomal stability, % remaining: 100.00%
[4]; 5 min
  Microsomal stability, % remaining: 58.19%
[4]; 10 min
  Microsomal stability, % remaining: 40.59%
[4]; 15 min
  Microsomal stability, % remaining: 28.11%
[4]; 30 min
  Microsomal stability, % remaining: 18.61%
[4]; 45 min
  Microsomal stability, % remaining: 18.42%
[4]; 60 min
  Microsomal stability, % remaining: 18.38%
[4]; Table 16, 0 min
  % of compound remaining when incubated in rat liver microsomes: 100%
[4]; Table 16, 4 min
  % of compound remaining when incubated in rat liver microsomes: 76.6%
[4]; Table 16, 6 min
  % of compound remaining when incubated in rat liver microsomes: 64.3%
[4]; Table 16, 10 min
  % of compound remaining when incubated in rat liver microsomes: 57.3%
[4]; Table 16, 15 min
  % of compound remaining when incubated in rat liver microsomes: 51.9%
[4]; Table 16, 30 min
  % of compound remaining when incubated in rat liver microsomes: 49.3%
[4]; Table 17, 0 min
  % of compound remaining when incubated in rat liver microsomes: 100%
[4]; Table 17, 4 min
  % of compound remaining when incubated in rat liver microsomes: 76.6%
[4]; Table 17, 6 min
  % of compound remaining when incubated in rat liver microsomes: 64.3%
[4]; Table 17, 10 min
  % of compound remaining when incubated in rat liver microsomes: 57.3%
[4]; Table 17, 15 min
  % of compound remaining when incubated in rat liver microsomes: 51.9%
[4]; Table 17, 30 min
  % of compound remaining when incubated in rat liver microsomes: 49.3%
[4]; rat liver microsomes
  microsomal stability (in words): metabolized fairly rapidly
[5]; 0 min
  Microsomal stability, % remaining: 100.00%
[5]; 5 min
  Microsomal stability, % remaining: 83.38%
[5]; 10 min
  Microsomal stability, % remaining: 71.22%
[5]; 15 min
  Microsomal stability, % remaining: 71.51%
[5]; 30 min
  Microsomal stability, % remaining: 54.96%
[5]; 45 min
  Microsomal stability, % remaining: 33.81%
[5]; 60 min
  Microsomal stability, % remaining: 32.52%
[5]; dog microsomes
  microsomal stability (in words): metabolized fairly rapidly
